Drawing on patent US7491794B2, “Macrocyclic compounds as inhibitors of viral replication” (Intermune, Inc., priority 2003, dated 2009), this text covers IC50 for 15 molecules.

For this experiment, the target named is T1, NS3-NS4A protease (Hepatitis C virus genotype 1a, UniProt P27958).
T1 construct: Recombinant E. coli or Baculovirus full-length NS3 was diluted to 3.33 μM with assay buffer; made in house; host or cells: E. coli or baculovirus (BV) system
T1 sequence (P27958 1027-1657): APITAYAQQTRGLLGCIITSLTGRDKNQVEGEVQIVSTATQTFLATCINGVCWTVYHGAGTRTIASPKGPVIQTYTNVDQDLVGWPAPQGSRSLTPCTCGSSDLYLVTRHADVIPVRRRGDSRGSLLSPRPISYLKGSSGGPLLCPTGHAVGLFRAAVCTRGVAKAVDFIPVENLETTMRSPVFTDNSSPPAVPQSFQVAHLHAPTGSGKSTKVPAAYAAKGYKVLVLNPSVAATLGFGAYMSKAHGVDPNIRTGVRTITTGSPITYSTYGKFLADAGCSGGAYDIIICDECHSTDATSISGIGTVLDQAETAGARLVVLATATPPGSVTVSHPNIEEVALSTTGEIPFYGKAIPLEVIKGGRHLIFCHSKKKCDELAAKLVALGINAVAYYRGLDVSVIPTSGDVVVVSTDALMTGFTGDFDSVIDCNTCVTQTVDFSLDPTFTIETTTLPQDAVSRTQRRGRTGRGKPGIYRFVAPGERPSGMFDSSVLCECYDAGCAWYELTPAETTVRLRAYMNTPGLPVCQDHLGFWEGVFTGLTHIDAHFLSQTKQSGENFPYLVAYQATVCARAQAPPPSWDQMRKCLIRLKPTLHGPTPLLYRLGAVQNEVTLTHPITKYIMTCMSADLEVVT
Nature of the experiment: NS3-NS4A protease assay (NS3 inhibition assay, RETS1 substrate), Section B. Format: biochemical. To be noted: read-out: NS3-NS4A IC50. On the procedure:
NS3 complex formation with NS4A-2
Recombinant E. coli or Baculovirus full-length NS3 was diluted to 3.33 μM with assay buffer and the material transferred to an eppendorf tube and place in water bath in 4° C. refrigerator. The appropriate amount of NS4A-2 to 8.3 mM in assay buffer was added to equal the volume of NS3 in step 2.1.1 (conversion factor −3.8 mg/272 μL assay buffer). The material was transferred to an eppendorf tube and placed in a water bath in a 4° C. refrigerator.
After equilibration to 4° C., equal volumes of NS3 and NS4A-2 solutions were combined in an eppendorf tube, mixed gently with a manual pipettor, and the mixture incubated for 15 minutes in the 4° C. water bath. Final concentrations in the mixture were 1.67 μM NS3, 4.15 mM NS4A-2 (2485-fold molar excess NS4A-2).
After 15 minutes at 4° C., the NS3/NS4A-2 eppendorf tube was removed and placed in a room temperature water bath for 10 minutes. NS3/NS4A-2 was aliquoted at appropriate volumes and store at −80° C. (E. coli NS3 run at 2 nM in assay, aliquot at 25 μL. BV NS3 run at 3 nM in assay, aliquot at 30 μL.
Step 2.2.5. Sample compounds were dissolved to 10 mM in DMSO then diluted to 2.5 mM (1:4) in DMSO.
Step 2.2.6. The E. coli NS3/NS4A-2 was diluted to 4 nM NS3 (1:417.5 of 1.67 μM stock−18 μL 1.67 μM stock+7497 μL assay buffer).
The BV NS3/NS4A-2 was diluted to 6 nM NS3 (1:278.3 of 1.67 μM stock−24 μL 1.67 μM stock+6655 μL assay buffer).
Step 2.2.7. Using the manual multichannel pipettor, and being careful not to introduce bubbles into the plate, 50 μL assay buffer was added to wells A01-H01 of a black Costar 96-well polypropylene storage plate.
Step 2.2.8. Using the manual multichannel pipettor, and being careful not to introduce bubbles into the plate, 50 μL of diluted NS3/NS4A-2 from step 2.2.6 was added to wells A02-H12 of plate in step 2.2.7.
Step 2.2.9. Using the manual multichannel pipettor, and being careful not to introduce bubbles into the plate, 25 μL of the wells in drug dilution plate in step 2.2.5 were transferred to corresponding wells in assay plate in step 2.2.8. The tips on multichannel pipettor were changed for each row of compounds transferred.
Step 2.2.10. Using the manual multichannel pipettor, and being careful not to introduce bubbles into the plate, the wells from the assay plate in step 2.2.9 were mixed by aspirating and dispensing 35 μL of the 75 μL in each well five times. The tips on multichannel pipettor were changed for each row of wells mixed.
Step 2.2.11. The plate was covered with a polystyrene plate lid, and the plate from step 2.2.10 containing NS3 protease and sample compounds was pre-incubated 10 minutes at room temperature.
While the plate from step 2.2.11 was pre-incubating, the RETS1 substrate was diluted in a 15 mL polypropylene centrifuge tube. The RETS1 substrate was diluted to 8 μM (1:80.75 of 646 μM stock−65 μL 646 μM stock+5184 μL assay buffer).
After the plate in step 2.2.11 was done pre-incubating, and using the manual multichannel, 25 μL of substrate was added to all wells on the plate. The contents of the wells were quickly mixed, as in step 2.2.10, but mixing 65 μL of the 100 μL in the wells.
The plate was read in kinetic mode on the Molecular Devices SpectraMax Gemini XS plate reader. Reader settings: Read time: 30 minutes, Interval: 36 seconds, Reads: 51, Excitation λ: 335 nm, Emission λ: 495 nm, cutoff: 475 nm, Automix: off, Calibrate: once, PMT: high, Reads/well: 6, Vmax pts: 21 or 28/51 depending on length of linearity of reaction.
IC50s were determined using a four parameter curve fit equation, and converted to Ki's using the following Km's:
where Ki=IC50/(1+[S]/Km))
Regarding `Cc1nc2c(s1)CN(C(=O)O[C@@H]1C[C@H]3C(=O)N[C@]4(C(=O)O)C[C@H]4/C=C\CCCCC[C@H](NC(=O)OC(C)(C)C)C(=O)N3C1)CC2` [AR00304158, (1S,4R,6S,14S,18R)-14-tert-Butoxycarbonylamino-18-(2-methyl-6,7-dihydro-4H-thiazolo[5,4-c]pyridine-5-carbonyloxy)-2,15-dioxo-3,16-diaza-tricyclo[14.3.0.0^4,6]nonadec-7-ene-4-carboxylic acid], the IC50 is less than 50 µM.

As to `CC(C)(C)OC(=O)N[C@H]1CCCCC/C=C\[C@@H]2C[C@@]2(C(=O)O)NC(=O)[C@@H]2C[C@@H](NC(=O)N3CCCc4ccccc43)CN2C1=O` [AR00304160, (1S,4R,6S,14S,18R)-14-tert-Butoxycarbonylamino-18-[(3,4-dihydro-2H-quinoline-1-carbonyl)-amino]-2,15-dioxo-3,16-diaza-tricyclo[14.3.0.0^4,6]nonadec-7-ene-4-carboxylic acid], the IC50 is less than 50 µM.

As for `CC(C)(C)OC(=O)N[C@H]1CCCCC/C=C\[C@@H]2C[C@@]2(C(=O)O)NC(=O)[C@@H]2C[C@@H](OC(=O)N3CCc4ncncc4C3)CN2C1=O` [AR00304183, (1S,4R,6S,14S,18R)-14-tert-Butoxycarbonylamino-18-(7,8-dihydro-5H-pyrido[4,3-d]pyrimidine-6-carbonyloxy)-2,15-dioxo-3,16-diaza-tricyclo[14.3.0.0^4,6]nonadec-7-ene-4-carboxylic acid], the IC50 is less than 50 µM.

On to `CC(C)(C)OC(=O)N[C@H]1CCCCCCC[C@@H]2C[C@@]2(C(=O)O)NC(=O)[C@@H]2C[C@@H](OC(=O)N3CCc4ccccc4C3)CN2C1=O` [AR00312023], for which the half-inhibitory concentration (IC50) was less than 1 µM.

Turning to `CC(C)(C)OC(=O)N[C@H]1CCCCC/C=C\[C@@H]2C[C@@]2(C(=O)O)NC(=O)[C@@H]2C[C@@H](OC(=O)N3CCc4cc(N)ccc4C3)CN2C1=O` [AR00314578, (1S,4R,6S,14S,18R)-18-(6-Amino-3,4-dihydro-1H-isoquinoline-2-carbonyloxy)-14-tert-butoxycarbonylamino-2,15-dioxo-3,16-diaza-tricyclo[14.3.0.0^4,6]nonadec-7-ene-4-carboxylic acid], the IC50 is less than 1 µM.

Turning to `CC(=O)Nc1nc2c(s1)CN(C(=O)O[C@@H]1C[C@H]3C(=O)N[C@]4(C(=O)O)C[C@H]4/C=C\CCCCC[C@H](NC(=O)OC(C)(C)C)C(=O)N3C1)CC2` [AR00314685, (1S,4R,6S,14S,18R)-18-(2-Acetylamino-6,7-dihydro-4H-thiazolo[5,4-c]pyridine-5-carbonyloxy)-14-tert-butoxycarbonylamino-2,15-dioxo-3,16-diaza-tricyclo[14.3.0.0^4,6]nonadec-7-ene-4-carboxylic acid], the IC50 is less than 50 µM.

Regarding `O=C(NC1CCOC1)N[C@H]1CCCCC/C=C\[C@@H]2C[C@@]2(C(=O)O)NC(=O)[C@@H]2C[C@@H](OC(=O)N3CCc4ccccc4C3)CN2C1=O` (stereo partly drawn) [AR00320221, (1S,4R,6S,14S,18R)-18-(3,4-Dihydro-1H-isoquinoline-2-carbonyloxy)-2,15-dioxo-14-[3-(tetrahydro-furan-3-yl)-ureido]-3,16-diaza-tricyclo[14.3.0.0^4,6]nonadec-7-ene-4-carboxylic acid], the IC50 was less than 1 µM.

With `O=C(N[C@H]1CCCCC/C=C\[C@@H]2C[C@@]2(C(=O)O)NC(=O)[C@@H]2C[C@@H](OC(=O)N3Cc4cc(Cl)c(Cl)cc4C3)CN2C1=O)O[C@@H]1CCOC1` [AR00320445, (1S,4R,6S,14S,18R)-18-(5,6-Dichloro-1,3-dihydro-isoindole-2-carbonyloxy)-2,15-dioxo-14-(tetrahydro-furan-3R-yloxycarbonylamino)-3,16-diaza-tricyclo[14.3.0.0^4,6]nonadec-7-ene-4-carboxylic acid], the IC50 is less than 10 µM.

As for `COc1ccccc1C1CCN(C(=O)O[C@@H]2C[C@H]3C(=O)N[C@]4(C(=O)O)C[C@H]4/C=C\CCCCC[C@H](NC(=O)OC(C)(C)C)C(=O)N3C2)CC1` [AR00320576, (1S,4R,6S,14S,18R)-14-tert-Butoxycarbonylamino-18-[4-(2-methoxy-phenyl)-piperidine-1-carbonyloxy]-2,15-dioxo-3,16-diaza-tricyclo[14.3.0.0^4,6]nonadec-7-ene-4-carboxylic acid], the IC50 was less than 10 µM.

`CN(C)CC1c2ccccc2CCN1C(=O)O[C@@H]1C[C@H]2C(=O)N[C@]3(C(=O)O)C[C@H]3/C=C\CCCCC[C@H](NC(=O)OC(C)(C)C)C(=O)N2C1` (stereo partly drawn) [AR00333224, (1S,4R,6S,14S,18R)-14-tert-Butoxycarbonylamino-18-(1-dimethylaminomethyl-3,4-dihydro-1H-isoquinoline-2-carbonyloxy)-2,15-dioxo-3,16-diaza-tricyclo[14.3.0.0^4,6]nonadec-7-ene-4-carboxylic acid]: the IC50 was less than 10 µM.

On to `CC(C)(C)OC(=O)N[C@H]1CCCCC/C=C\[C@@H]2C[C@@]2(C(=O)O)NC(=O)[C@@H]2C[C@@H](OC(=O)N3CCc4ccccc4C3CN3CCOCC3)CN2C1=O` (stereo partly drawn) [AR00333225, (1S,4R,6S,14S,18R)-14-tert-Butoxycarbonylamino-18-(1-morpholin-4-ylmethyl-3,4-dihydro-1H-isoquinoline-2-carbonyloxy)-2,15-dioxo-3,16-diaza-tricyclo[14.3.0.0^4,6]nonadec-7-ene-4-carboxylic acid], for which the IC50 is less than 10 µM.

As for `COc1ccc2c(c1)CCN(C(=O)O[C@@H]1C[C@H]3C(=O)N[C@]4(C(=O)O)C[C@H]4/C=C\CCCCC[C@H](NC(=O)OC(C)(C)C)C(=O)N3C1)C2CN1CCCCC1` (stereo partly drawn) [AR00333248, (1S,4R,6S,14S,18R)-14-tert-Butoxycarbonylamino-18-(6-methoxy-1-piperidin-1-ylmethyl-3,4-dihydro-1H-isoquinoline-2-carbonyloxy)-2,15-dioxo-3,16-diaza-tricyclo[14.3.0.0^4,6]nonadec-7-ene-4-carboxylic acid], the concentration for half-maximal inhibition (IC50) is less than 10 µM.

For the molecule `COc1ccc2c(c1)CCN(C(=O)O[C@@H]1C[C@H]3C(=O)N[C@]4(C(=O)O)C[C@H]4/C=C\CCCCC[C@H](NC(=O)OC(C)(C)C)C(=O)N3C1)C2CN1CCOCC1` (stereo partly drawn) [AR00333276, (1S,4R,6S,14S,18R)-14-tert-Butoxycarbonylamino-18-(6-methoxy-1-morpholin-4-ylmethyl-3,4-dihydro-1H-isoquinoline-2-carbonyloxy)-2,15-dioxo-3,16-diaza-tricyclo[14.3.0.0^4,6]nonadec-7-ene-4-carboxylic acid], the IC50 is less than 10 µM.

As for `COc1ccc2c(c1)CCN(C(=O)O[C@@H]1C[C@H]3C(=O)N[C@]4(C(=O)O)C[C@H]4/C=C\CCCCC[C@H](NC(=O)OC(C)(C)C)C(=O)N3C1)C2CN(C)C` (stereo partly drawn) [AR00333277, (1S,4R,6S,14S,18R)-14-tert-Butoxycarbonylamino-18-(1-dimethylaminomethyl-6-methoxy-3,4-dihydro-1H-isoquinoline-2-carbonyloxy)-2,15-dioxo-3,16-diaza-tricyclo[14.3.0.0^4,6]nonadec-7-ene-4-carboxylic acid], the IC50 was less than 10 µM.

For `CC(C)(C)OC(=O)N[C@H]1CCCCC/C=C\[C@@H]2C[C@@]2(C(=O)NS(=O)(=O)c2cc(C(=O)O)ccc2Cl)NC(=O)[C@@H]2C[C@@H](OC(=O)N3Cc4ccccc4C3)CN2C1=O` [AR00365388, (1S,4R,6S,14S,18R)-1,3-Dihydro-isoindole-2-carboxylic acid 14-tert-butoxycarbonylamino-4-(5-carboxy-2-chloro-benzenesulfonylaminocarbonyl)-2,15-dioxo-3,16-diaza-tricyclo[14.3.0.0^4,6]nonadec-7-en-18-yl ester], the IC50 was less than 0.1 µM.
